“And” between values parts separate entries of the source, which are not always exact repeats. Equal values may be shown once.
What was measured:
WKY rats = experiment: Systolic blood pressure in WKY rats (tail cuff); format: in vivo, rat; details: single 3 mg/kg dose
Source text: (§1) Animals. Male SHR and WKY rats 3-13 wks of age were purchased from Charles River Laboratories (Wilmington, Mass.) and housed in a controlled environment with 12 hr light/dark cycles and fed standard laboratory chow for 3 days before euthanasia. All animal use was approved by the University of California San Francisco Committee on Animal Research and followed the National Institutes of Health guidenlines for the care and use of laboratory animals. For isolation of kidney subcellular fractions, rats were anesthetized with methoxyflurane, the abdominal cavities were opened, and the kidneys were perfused with ice-cold saline. Perfused kidneys were rapidly removed, the cortex and medulla dissected out and immersed in liquid nitrogen. All tissue was stored at −80° C. until preparation of microsomes. In some cases WKY and SHR rats were housed in metabolic cages for up to three days and urine was collected over triphenylphosphine in 24 hr intervals. The urine volume was noted and aliquots were stored at −80° C. prior to extraction and quantitation of DHETs and EETs. […] Systolic blood pressure was measured at room temperature by a photoelectric tail cuff system (Model 179, IITC, Inc., Woodland Hills, Calif.) for up to four days following the dose of inhibitor. Blood pressures are reported as the average of three separate readings over a 30 min period. […]

[1] = system: CYP epoxygenase or -hydroxylase; experiment: Renal microsomal arachidonic acid metabolism (CYP epoxygenase, hydroxylase); format: biochemical, rat; design: dose or concentration left out as unconfirmed
Method: Renal microsomal arachidonic acid metabolism. Microsomes, cytosol, and S9 fractions were prepared from the renal cortex or outer medulla samples from a single animal as described previously (Kroetz, D. L. et al. Mol Pharmacol 52, 362-372 (1997), Su, P. et al. Am J Physiol 275, R426-438 (1998)). Reaction conditions for the in vitro determination of arachidonic acid epoxygenase activity, metabolite extraction and HPLC analysis were described in detail elsewhere (Su, P. et al. Am J Physiol 275, R426-438 (1998)).

mEH = molecular target: T1, mEH (Rattus norvegicus, UniProt P07687); details: previous studies, Morisseau 1999; cited from earlier work
T1 sequence (P07687 1-455): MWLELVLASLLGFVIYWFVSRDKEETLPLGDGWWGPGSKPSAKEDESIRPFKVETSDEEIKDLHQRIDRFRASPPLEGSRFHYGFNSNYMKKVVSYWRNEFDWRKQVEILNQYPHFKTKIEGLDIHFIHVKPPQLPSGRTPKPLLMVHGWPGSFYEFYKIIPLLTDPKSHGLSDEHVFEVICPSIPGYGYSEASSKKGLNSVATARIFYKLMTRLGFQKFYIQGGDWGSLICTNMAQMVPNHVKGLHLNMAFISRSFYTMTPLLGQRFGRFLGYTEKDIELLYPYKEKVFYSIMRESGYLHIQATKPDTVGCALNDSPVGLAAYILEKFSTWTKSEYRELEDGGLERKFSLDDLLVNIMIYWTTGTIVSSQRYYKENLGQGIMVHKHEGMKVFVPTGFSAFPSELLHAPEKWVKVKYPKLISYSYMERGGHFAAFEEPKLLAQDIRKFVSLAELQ

[2] = system: insect cell culture expressing rat mEH; experiment: Insect cell culture expressing rat mEH, toxicity of epoxide-containing xenobiotics; format: cell-based
Method: (§2) The micosomal enzyme plays a significant role in the metabolism of xenobiotics such as polyaromatic toxicants. Additionally, polymorphism studies have underlined a potential role of this enzyme in relation to several diseases, such as emphysema, spontaneous abortion and several forms of cancer. Inhibition of recombinant rat and human mEH can be obtained using primary ureas, amides, and amines. For example, elaidamide, has a K1 of 70 nM for recombinant rat mEH.

recombinant rat mEH = molecular target: T2, recombinant rat mEH (Rattus norvegicus, UniProt P07687); experiment: Inhibition of recombinant rat mEH; format: biochemical
T2 sequence (P07687 1-455): T1 sequence (P07687 1-455)
Method: as §2

SHR = experiment: Systolic blood pressure in SHR (tail cuff); format: in vivo, rat; details: 6 hr after single dose (3 mg/kg DCU or equimolar)
Source text: as §1

[3] = molecular target: T3, recombinant mouse sEH (MsEH) (Mus musculus, UniProt P34914); experiment: Inhibition of recombinant mouse sEH (MsEH); format: biochemical; details: Table 1; MsEH 0.13 μM; read-out: Mouse sEH IC50
T3 sequence (P34914 1-554): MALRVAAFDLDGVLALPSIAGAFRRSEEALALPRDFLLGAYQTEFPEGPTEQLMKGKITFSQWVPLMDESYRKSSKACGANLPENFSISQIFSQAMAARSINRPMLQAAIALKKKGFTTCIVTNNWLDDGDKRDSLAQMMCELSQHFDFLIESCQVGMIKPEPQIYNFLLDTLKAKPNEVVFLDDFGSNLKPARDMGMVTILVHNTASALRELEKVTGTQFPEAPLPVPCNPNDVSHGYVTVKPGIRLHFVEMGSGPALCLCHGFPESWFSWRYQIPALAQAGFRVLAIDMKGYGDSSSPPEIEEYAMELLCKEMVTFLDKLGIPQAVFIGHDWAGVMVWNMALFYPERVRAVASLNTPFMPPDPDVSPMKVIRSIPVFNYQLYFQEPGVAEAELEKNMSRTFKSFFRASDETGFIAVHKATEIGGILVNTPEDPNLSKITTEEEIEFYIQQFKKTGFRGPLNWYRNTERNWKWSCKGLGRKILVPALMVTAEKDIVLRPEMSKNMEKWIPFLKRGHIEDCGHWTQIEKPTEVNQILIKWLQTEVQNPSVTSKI

Human sEH (HsEH) = molecular target: T4, Human sEH (HsEH) (Homo sapiens, UniProt P34913); experiment: Inhibition of recombinant human sEH (HsEH); format: biochemical; details: Table 1; HsEH 0.26 μM
T4 sequence (P34913 1-555): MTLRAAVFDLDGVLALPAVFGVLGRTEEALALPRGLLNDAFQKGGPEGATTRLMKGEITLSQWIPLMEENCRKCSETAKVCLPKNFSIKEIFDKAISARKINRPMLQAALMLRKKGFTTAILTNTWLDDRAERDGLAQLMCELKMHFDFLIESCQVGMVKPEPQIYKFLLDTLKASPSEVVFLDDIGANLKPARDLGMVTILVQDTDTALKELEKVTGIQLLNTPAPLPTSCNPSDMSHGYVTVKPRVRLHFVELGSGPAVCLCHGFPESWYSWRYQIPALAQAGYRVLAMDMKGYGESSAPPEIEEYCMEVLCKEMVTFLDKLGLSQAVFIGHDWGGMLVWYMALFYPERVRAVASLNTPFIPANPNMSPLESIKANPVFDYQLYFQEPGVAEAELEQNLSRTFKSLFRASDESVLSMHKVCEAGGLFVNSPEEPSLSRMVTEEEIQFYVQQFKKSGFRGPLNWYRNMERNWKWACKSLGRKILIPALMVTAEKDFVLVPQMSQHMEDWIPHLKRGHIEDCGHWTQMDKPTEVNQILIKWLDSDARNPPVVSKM

| Structure (SMILES) | IC50 [3] [nM] | IC50 (Human sEH (HsEH)) [nM] | other results |
| --- | --- | --- | --- |
| O=C(NC1CCCCC1)NC1CCCCC1 [DCU, N,N′-dicyclohexylurea] |  |  | effect on blood pressure in WKY (WKY rats): unaffected; effect on CYP epoxygenase or -hydroxylase activity [1]: no effect; inhibition of mEH (mEH): does not inhibit mEH |
| CCCCCCCC/C=C/CCCCCCCC(N)=O [elaidamide] |  |  | effect on toxicity of epoxide-containing xenobiotics [2]: enhances the toxicity effects; inhibition kinetics with mEH (recombinant rat mEH; non-covalent complex): apparent mix of competitive and non-competitive inhibition kinetics; Ki (recombinant rat mEH; read-out: K1 for recombinant rat mEH): 70 nM |
| CCCCCCCCCCCCNC(=O)NC1CCCCC1 [N-cyclohexyl-N′-dodecylurea] |  |  | decrease in systolic blood pressure (SHR): 12±2 mm Hg and 12 mm Hg |
| O=C(Nc1ccc([N+](=O)[O-])cc1)NC1CCCCC1 [compound 38] | 170 ± 10 | 360 ± 20 |  |
| O=C(NC1CCCCC1)NC1CCCc2ccccc21 (stereo not drawn) [compound 434] | 50 ± 10 | 100 ± 10 |  |
| CC1CCC(NC(=O)NC2CCCCC2)CC1 (stereo not drawn) [compound 538] | 50 ± 10 | 100 ± 10 |  |

Now from value to molecule, other results behind:

| IC50 [3] [nM] | IC50 (Human sEH (HsEH)) [nM] | Structure (SMILES) | other results |
| --- | --- | --- | --- |
| 850 ± 20 | 480 ± 10 | O=C(Nc1cccc2ccccc12)NC1CCCCC1 [compound 59] |  |
| 60 ± 10 | 530 ± 30 | O=C(NCC1CCCCC1)Nc1ccccc1 [compound 176] |  |
| 120 ± 10 | 180 ± 10 | CCCCCCCCNC(=O)Nc1cccc(Cl)c1 [compound 170] |  |
| 710 ± 40 | 230 ± 10 | COc1ccc(NC(=O)NC2CCCCC2)cc1 [compound 67] |  |
